Test results as given in paper PMC6131205, “Controlling the regioselectivity and stereospecificity of FAD-dependent polyamine oxidases with the use of amine-attached guide molecules as conformational modulators” (Bioscience Reports, 2018).
Values belong to the compound of their own block, whether it stands above or below them.

Columns and labels:
[1] = molecular target: T1, Fms1 (Saccharomyces cerevisiae, UniProt P50264); assay: Substrate kinetics with recombinant Fms1 (HPLC of reaction products); conditions: Fms1, text summary of Supplementary Table S2;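 further: recombinant polyamine oxidases incubated with substrate, product amines (putrescine, 1,3-diaminopropane or butane-1,3-diamine) quantified by HPLC after post-column o-phthalaldehyde derivatization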
T1 sequence (P50264 whole entry): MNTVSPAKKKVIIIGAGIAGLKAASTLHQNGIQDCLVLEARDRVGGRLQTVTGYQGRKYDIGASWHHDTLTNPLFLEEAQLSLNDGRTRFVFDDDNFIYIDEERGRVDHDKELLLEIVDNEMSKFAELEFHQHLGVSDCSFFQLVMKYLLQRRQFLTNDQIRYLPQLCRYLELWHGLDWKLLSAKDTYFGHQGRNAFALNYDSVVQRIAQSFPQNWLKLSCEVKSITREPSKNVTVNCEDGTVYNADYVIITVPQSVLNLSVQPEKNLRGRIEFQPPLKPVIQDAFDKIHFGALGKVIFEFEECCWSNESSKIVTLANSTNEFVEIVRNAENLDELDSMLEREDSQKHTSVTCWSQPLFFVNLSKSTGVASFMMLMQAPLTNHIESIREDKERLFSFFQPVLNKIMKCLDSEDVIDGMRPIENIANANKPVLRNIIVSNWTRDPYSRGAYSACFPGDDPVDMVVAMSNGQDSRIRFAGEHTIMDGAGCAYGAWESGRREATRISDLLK

[2] = molecular target: T2, human recombinant APAO (Homo sapiens, UniProt Q6QHF9); conditions: benzaldehyde Schiff base of MeSpd; cited from earlier work
T2 construct: made in house
T2 sequence (Q6QHF9 whole entry): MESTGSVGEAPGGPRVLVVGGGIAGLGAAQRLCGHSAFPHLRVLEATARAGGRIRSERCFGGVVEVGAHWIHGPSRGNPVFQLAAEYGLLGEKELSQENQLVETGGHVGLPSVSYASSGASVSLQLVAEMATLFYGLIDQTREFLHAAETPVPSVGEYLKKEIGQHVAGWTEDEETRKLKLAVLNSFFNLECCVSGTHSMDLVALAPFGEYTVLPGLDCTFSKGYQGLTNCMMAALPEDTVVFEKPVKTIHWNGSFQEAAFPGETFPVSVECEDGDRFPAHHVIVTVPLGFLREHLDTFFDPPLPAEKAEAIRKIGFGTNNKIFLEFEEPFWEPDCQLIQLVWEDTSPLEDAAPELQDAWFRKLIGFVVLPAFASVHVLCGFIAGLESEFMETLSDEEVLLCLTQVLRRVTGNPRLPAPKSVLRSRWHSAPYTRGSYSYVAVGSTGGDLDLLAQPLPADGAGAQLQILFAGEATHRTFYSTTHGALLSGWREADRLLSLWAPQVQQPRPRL

[3] = molecular target: T1, Fms1; assay: Fms1 cleavage of (R)- or (S)-MeSpd with or without aromatic aldehyde (E1/E2 velocities); assay type: biochemical, yeast; parameters: made in house
[4] = molecular target: T1, Fms1; assay: as above; assay type: biochemical, yeast; parameters: made in house; remark: listed apart in the source
Protocol: Supplementary Table 3 The effects of increasing aromatic aldehyde concentration for the regioselectivity of Fms1 using (R)-MeSpd or (S)-MeSpd as a substrate.
The reactions were carried out in triplicate at pH 9.0 in 100 mM Glycine-NaOH at +25°C with the fixed 1 or 4 mM MeSpd supplemented with increasing concentration 50 or 500 µM of tested aldehyde. Recombinant Fms1 was 1.6 µg/reaction and the incubation time from 15 to 30 minutes.
Linearity of reaction was monitored by using T1/2 controls, i.e. samples that have been incubated for 7.5 to 15 min (half of the reaction time of an ordinary sample). E1 cleavage was monitored by HPLC by measuring Put formation and E2 cleavage by determining butane-1,3-diamine content.
Substrate (R)-MeSpd (S)-MeSpd […]

[5] = molecular target: T1, Fms1; assay: Fms1 cleavage of 1 mM Spd supplemented with aldehydes (E1/E2 regioselectivity); assay type: biochemical, yeast; parameters: made in house; conditions: for effect on cleavage site balance of Spd: Spd plus aldehyde; for E1 cleavage (Put) kcat / E2 cleavage (DAP) kcat / Ratio of E1/E2: fixed 1 mM Spd, aldehyde 25-1000 μM, pH 9.0, 25°C;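 on all read-outs here: recombinant yeast Fms1 reactions in Glycine-NaOH buffer, with products Put and DAP quantified by HPLC using post-column o-phthalaldehyde derivatization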
Protocol: HPLC with post-column o-phthalaldehyde-derivatization was used to determine the concentrations of the reaction products Put and 1,3-diaminopropane (DAP) or butane-1,3-diamine respectively as described in [30]. Fms1 activity was determined essentially as described for human recombinant APAO, but reactions were carried out in 100 mM Glycine-NaOH buffer at pH 9.0 in a water bath at +25°C [29, 30].

[6] = molecular target: T3, SMOX (Homo sapiens, UniProt Q9NWM0); assay: Substrate properties with human recombinant SMOX; assay type: biochemical; parameters: made in house
T3 sequence (Q9NWM0 whole entry): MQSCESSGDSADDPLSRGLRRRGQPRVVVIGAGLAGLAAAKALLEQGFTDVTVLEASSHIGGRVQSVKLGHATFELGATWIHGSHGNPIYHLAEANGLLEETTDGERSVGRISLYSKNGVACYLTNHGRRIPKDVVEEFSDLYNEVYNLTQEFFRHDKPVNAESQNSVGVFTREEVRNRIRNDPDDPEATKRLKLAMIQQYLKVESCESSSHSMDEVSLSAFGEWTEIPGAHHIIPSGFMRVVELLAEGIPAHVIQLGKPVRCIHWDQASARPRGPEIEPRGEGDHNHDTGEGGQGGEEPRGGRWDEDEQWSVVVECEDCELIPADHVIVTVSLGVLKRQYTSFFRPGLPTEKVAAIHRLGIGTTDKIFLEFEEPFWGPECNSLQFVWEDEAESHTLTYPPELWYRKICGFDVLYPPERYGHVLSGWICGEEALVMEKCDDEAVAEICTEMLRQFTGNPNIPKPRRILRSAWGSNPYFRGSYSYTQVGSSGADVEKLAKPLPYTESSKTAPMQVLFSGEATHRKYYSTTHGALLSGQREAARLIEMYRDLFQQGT
From the text: Thus, developing specific inhibitors of SMOX is of crucial importance. In addition, the use of specific substrates for SMOX and APAO would enable distinguishing between APAO and SMOX enzyme activities in vivo.

[7] = molecular target: T2, human recombinant APAO; assay: Substrate kinetics with human recombinant APAO (HPLC of reaction products); assay type: biochemical; conditions: for Km / Vmax / kcat: 100 mM Glycine-NaOH pH 9.5, 5 mM DTT
[8] = molecular target: T3, SMOX; assay: Inhibition of SMOX (Ki, peroxidase-coupled fluorescence, Spm as substrate)
Protocol: Reaction mixtures contained 40 units/ml horseradish peroxidase (Roche), 1 mM homovanillic acid in 100 mM Glycine-NaOH at pH 9.0 supplemented with 40 ng of SMOX. […] Dilutions of fresh H2O2 were used as standard.

[9] = aldehyde A12 50 µM, first of two lines (1 or 4 mM MeSpd, not stated which)
[10] = aldehyde A12 50 µM, second of two lines (1 or 4 mM MeSpd, not stated which)
[11] = aldehyde A12 500 µM, first of two lines (1 or 4 mM MeSpd, not stated which)
[12] = aldehyde A12 500 µM, second of two lines (1 or 4 mM MeSpd, not stated which)
[13] = aldehyde A13 50 µM, first of two lines (1 or 4 mM MeSpd, not stated which)
[14] = aldehyde A13 50 µM, second of two lines (1 or 4 mM MeSpd, not stated which)
[15] = aldehyde A13 500 µM, first of two lines (1 or 4 mM MeSpd, not stated which)
[16] = aldehyde A13 500 µM, second of two lines (1 or 4 mM MeSpd, not stated which)
[17] = Ki (best-fit value, noncompetitive inhibition), GraphPad Prism global fit, supplement
[18] = Ki, non-competitive fit, 25, 50 or 100 µM Spm, pH 9.0, 37°C

Km [1]: > 500 µM
E1 cleavage velocity ([3]; Without aldehyde, 1 mM MeSpd): 9.5 ± 0.1 nmol/mg/min
E1 cleavage velocity [3, 9]: 10.5 ± 1.1 nmol/mg/min
E2 cleavage velocity [3, 9]: 33.7 ± 4.8 nmol/mg/min
E1 cleavage velocity [3, 10]: 14.0 ± 0.9 nmol/mg/min
E2 cleavage velocity [3, 10]: 31.8 ± 4.3 nmol/mg/min
E1 cleavage velocity [3, 11]: 12.7 ± 1.6 nmol/mg/min
E2 cleavage velocity [3, 11]: 186 ± 24 nmol/mg/min
E1 cleavage velocity [3, 12]: 14.4 ± 0.8 nmol/mg/min
E2 cleavage velocity [3, 12]: 216 ± 31 nmol/mg/min
E2 cleavage velocity [3, 13]: 10.3 ± 3.1 nmol/mg/min
E1 cleavage velocity [3, 14]: 19.1 ± 0.4 nmol/mg/min
E2 cleavage velocity [3, 14]: 9.6 ± 2.2 nmol/mg/min
E1 cleavage velocity [3, 15]: 72.8 ± 2.3 nmol/mg/min
E2 cleavage velocity [3, 15]: 41.5 ± 3.4 nmol/mg/min
E1 cleavage velocity [3, 16]: 63.1 ± 1.0 nmol/mg/min
E2 cleavage velocity [3, 16]: 39.5 ± 2.1 nmol/mg/min
E2 cleavage velocity ([4]; Without aldehyde, 1 mM MeSpd): 4.3 ± 0.9 nmol/mg/min
E1 cleavage velocity ([4]; Without aldehyde, 4 mM MeSpd): 12.5 ± 0.0 nmol/mg/min
E2 cleavage velocity ([4]; Without aldehyde, 4 mM MeSpd): 5.6 ± 0.4 nmol/mg/min
E1 cleavage velocity [4, 13]: 19.1 ± 1.0 nmol/mg/min
SMILES: C[C@@H](N)CCNCCCCN [(R)-MeSpd, 1,8-diamino-5-azanonane]
specificity constant ratio (R)/(S) of benzaldehyde Schiff base derivatives [2]: eight

Km [1]: > 500 µM
E1 cleavage velocity ([3]; Without aldehyde, 1 mM MeSpd): 7.2 ± 0.2 nmol/mg/min
E1 cleavage velocity [3, 9]: 29 ± 1.0 nmol/mg/min
E2 cleavage velocity [3, 9]: 20.2 ± 1.0 nmol/mg/min
E1 cleavage velocity [3, 10]: 31 ± 1.8 nmol/mg/min
E2 cleavage velocity [3, 10]: 23.3 ± 2.0 nmol/mg/min
E1 cleavage velocity [3, 11]: 57 ± 1.1 nmol/mg/min
E2 cleavage velocity [3, 11]: 36 ± 4.2 nmol/mg/min
E1 cleavage velocity [3, 12]: 62 ± 3 nmol/mg/min
E2 cleavage velocity [3, 12]: 41 ± 2.5 nmol/mg/min
E2 cleavage velocity [3, 13]: 8.6 ± 1.8 nmol/mg/min
E1 cleavage velocity [3, 14]: 44.0 ± 1.2 nmol/mg/min
E2 cleavage velocity [3, 14]: 10.0 ± 0.6 nmol/mg/min
E1 cleavage velocity [3, 15]: 66.1 ± 0.0 nmol/mg/min
E2 cleavage velocity [3, 15]: 6.9 ± 0.7 nmol/mg/min
E1 cleavage velocity [3, 16]: 73.5 ± 0.4 nmol/mg/min
E2 cleavage velocity [3, 16]: 7.4 ± 1.3 nmol/mg/min
E2 cleavage velocity ([4]; Without aldehyde, 1 mM MeSpd): 7.9 ± 1.1 nmol/mg/min
E1 cleavage velocity ([4]; Without aldehyde, 4 mM MeSpd): 9.6 ± 0.1 nmol/mg/min
E2 cleavage velocity ([4]; Without aldehyde, 4 mM MeSpd): 11.1 ± 1.8 nmol/mg/min
E1 cleavage velocity [4, 13]: 45.6 ± 2.6 nmol/mg/min
SMILES: C[C@H](N)CCNCCCCN [(S)-MeSpd, 1,8-diamino-5-azanonane]

SMILES: COc1ccc(C=O)cc1 [A4]
effect on cleavage site balance of Spd [5]: shifted the balance towards E2 cleavage site

SMILES: O=Cc1cccc(O)c1 [A6]
effect on cleavage site balance of Spd [5]: shifted the balance towards E2 cleavage site

increase of the ratio of the cleavage pathways (E1/E2) ([5]; Spd plus aldehyde vs Spd alone): 5 fold
SMILES: O=Cc1ccccc1[N+](=O)[O-] [A7]

SMILES: O=Cc1ccccn1 [A18]
effect on cleavage site balance of Spd [5]: shifted the balance towards E2 cleavage site

substrate of SMOX [6]: not being substrates of SMOX
Km [7]: 2 ± 0.1 µM
Vmax [7]: 0.15 ± 0.00 µmol/min/mg
kcat [7]: 0.14 ± 0.00 s⁻¹
specificity constant ratio (R)-enantiomer/(S)-enantiomer ([7]; APAO, ratio of kcat/Km): four
Ki [8, 17]: 441 µM
Ki [8, 18]: 441 ± 32 µM
SMILES: C[C@H](CCNCCCCN)NCc1ccccc1 [Bn-(R)-MeSpd]

substrate of SMOX [6]: not being substrates of SMOX
Km [7]: 1.6 ± 0.6 µM
Vmax [7]: 0.03 ± 0.00 µmol/min/mg
kcat [7]: 0.03 ± 0.00 s⁻¹
Ki [8, 17]: 155 µM
Ki [8, 18]: 155 ± 13 µM
SMILES: C[C@@H](CCNCCCCN)NCc1ccccc1 [Bn-(S)-MeSpd]

Km [7]: 1.2 ± 0.7 µM
Vmax [7]: 5.02 ± 0.74 µmol/min/mg
kcat [7]: 4.6 ± 0.7 s⁻¹
Ki [8, 17]: 589 µM
Ki [8, 18]: 589 ± 58 µM
SMILES: C[C@H](CCNCCCCN)NC(=O)c1ccccc1 [Bz-(R)-MeSpd]

Km [7]: 0.2 ± 0.2 µM
Vmax [7]: 0.03 ± 0.00 µmol/min/mg
kcat [7]: 0.03 ± 0.00 s⁻¹
Ki [8, 17]: 846 µM
Ki [8, 18]: 846 ± 82 µM
SMILES: C[C@@H](CCNCCCCN)NC(=O)c1ccccc1 [Bz-(S)-MeSpd]

E1 cleavage (Put) kcat [5]: 0.54 ± 0.01 s⁻¹
E2 cleavage (DAP) kcat [5]: 0.08 ± 0.00 s⁻¹
Ratio of E1/E2 [5]: 5.2
SMILES: O=Cc1ccccc1O [C00002]

E1 cleavage (Put) kcat [5]: 0.31 ± 0.01 s⁻¹
E2 cleavage (DAP) kcat [5]: 0.47 ± 0.01 s⁻¹
Ratio of E1/E2 [5]: 0.22
SMILES: O=Cc1cccc(O)c1 [C00003]

E1 cleavage (Put) kcat [5]: 0.11 ± 0.00 s⁻¹
E2 cleavage (DAP) kcat [5]: 0.03 ± 0.00 s⁻¹
Ratio of E1/E2 [5]: 118
SMILES: O=Cc1ccc(O)cc1 [C00004]

E1 cleavage (Put) kcat [5]: 7.4 ± 0.2 s⁻¹
E2 cleavage (DAP) kcat [5]: 0.19 ± 0.01 s⁻¹
Ratio of E1/E2 [5]: 12.9
SMILES: O=Cc1ccncc1 [C00005]

E1 cleavage (Put) kcat [5]: 5.5 ± 0.1 s⁻¹
E2 cleavage (DAP) kcat [5]: 0.48 ± 0.01 s⁻¹
Ratio of E1/E2 [5]: 8.0
SMILES: O=Cc1cccnc1 [C00006]
